Experimental data published in patent publication EP0195496A2, “Use of xanthines in the treatment of proliferative skin disease” (BEECHAM GROUP PLC, priority 1985, dated 1986).

biological target: cyclic AMP phosphodierterase; experiment: cyclic AMP phosphodiesterase activity in rat gastrocnemius muscle homogenates (Dixon plot); format: biochemical; conditions: compounds of formula (I); homogenates of rat gastocnemius muscle; 0.31 uM cyclic AMP as substrate; Dixon plot extrapolation; read-out: Apparent Ki value.
Experimental: The activity of cyclic AMP phosphodierterase in homogenates of rat gastocnemius muscle was measured in the presence of various concentrations of compounds of formulae (I), (II), (III), (IV) or (V) using 0.31 uM cyclic AMP as substration. The reciprocal of the reaction rate was plotted on the y axis against the concentration of each compound on the x axis (Dixon plot). The apparent Ki value was estimated by extrapolating the steeper linear portion of the Dixon plot to the x axis and obtaining the negative intercept on the x axis.

`CCCCn1c(=O)c2c(ncn2C(C)C(C)=O)n(CC)c1=O` (centres unmarked) and `CCCCn1c(=O)c2c(ncn2C(C)C(C)=O)n(CCCC)c1=O` (centres unmarked) are within 1.5-fold of each other in Ki: 24.8 µM for the first, 30.1 µM for the second.

Going from `CCCCn1c(=O)c2c(ncn2C(C)CC(C)=O)n(CCCC)c1=O` (centres unmarked) to `CCCCn1c(=O)c2c(ncn2CC(C)=O)n(CCCC)c1=O` [formula (I) R^1=C4H9 R^2=C4H9 X=-CH2-, 1,3-di-n-butyl-7-(2-oxopropyl) xanthine], the Ki falls from 17.5 µM to 3.3 µM (5.3-fold). The second binds more tightly here.

Going from `CC(=O)Cn1cnc2c1c(=O)n(C(C)C)c(=O)n2C(C)C` [1,3-di-iso-propyl-7-(2-oxopropyl) xanthine] to `CCCCn1c(=O)c2c(ncn2CC(C)=O)n(CC)c1=O` [formula (I) R^1=C4H9 R^2=C2H5 X=-CH2-], the Ki rises from 6.1 µM to 21 µM (3.4-fold).

`CCCn1c(=O)c2c(ncn2CCC(C)=O)n(CCC)c1=O` [formula (I) R^1=C3H7 R^2=C3H7 X=-(CH2)2-] and `CCCCn1c(=O)c2c(ncn2CCC(C)=O)n(CCCC)c1=O` [formula (I) R^1=C4H9 R^2=C4H9 X=-(CH2)2-, 1,3-di-n-butyl-7-(3-oxobutyl) xanthine] are within 1.5-fold of each other in Ki: 27 µM for the first, 25 µM for the second.

Compared with `CCCCn1c(=O)c2c(ncn2CCC(C)=O)n(CC)c1=O` [formula (I) R^1=C4H9 R^2=C2H5 X=-(CH2)2-, 1-n-butyl 3-ethyl-7-(3-oxobutyl) xanthine], `CCCCn1c(=O)c2c(ncn2CC(C)=O)n(CCC)c1=O` [formula (I) R^1=C4H9 R^2=C3H7 X=-CH2-, 1-n-butyl 3-n-propyl-7-(2-oxopropyl) xanthine] is 6-fold lower in Ki: 12 µM for the first, 2 µM for the second.

First: CCCCn1c(=O)c2c(ncn2CCCC(C)=O)n(CCCC)c1=O [formula (I) R^1=C4H9 R^2=C4H9 X=-(CH2)3-]
Second: CCCCn1c(=O)c2c(ncn2CCCCC(C)=O)n(CCCC)c1=O [formula (I) R^1=C4H9 R^2=C4H9 X=-(CH2)4-, 1,3-di-n-butyl-7-(5-oxohexyl)xanthine]
The Ki of the first is 2.8-fold higher: 39 µM for the first, 14.1 µM for the second.

same assay, conditions: compounds of formula (II); homogenates of rat gastocnemius muscle; 0.31 uM cyclic AMP as substrate; Dixon plot extrapolation; read-out: Apparent Ki Value

Going from `CCCCn1c(=S)c2c(ncn2CC(C)=O)n(CC)c1=O` to `CCCCn1c(=S)c2c(ncn2CCC(C)=O)n(CC)c1=O`, the Ki falls from 41 µM to 22.9 µM (1.8-fold).

`CCCCn1c(=O)c2c(ncn2CC(C)=O)n(CCCC)c1=S` [1,3-di-n-butyl-7-(2-oxopropyl)-2-thioxanthine] was tested, and the Ki was 2.5 µM.

same assay, conditions: compounds of formula (III); homogenates of rat gastocnemius muscle; 0.31 uM cyclic AMP as substrate; Dixon plot extrapolation; read-out: Apparent Ki value

Going from `CCn1c(=O)c2c(ncn2CC2(C)OCCO2)n(CC)c1=O` to `CCCCn1c(=O)c2c(ncn2CC2(C)OCCO2)n(CC)c1=O`, the Ki falls from 73 µM to 45 µM (1.6-fold).

`CCCCn1c(=O)c2c(ncn2CC(C)(OC)OC)n(CCCC)c1=O` [1,3-di-n-butylxanthin-7-yl propan-2-one, dimethyl ketal] and `CCCCn1c(=O)c2c(ncn2CC2(C)OCCO2)n(CCCC)c1=O` [2-methyl-2-[(1,3-di-n-butylxanthin-7-yl)methyl]-1,3-di oxolane] are within 1.5-fold of each other in Ki: 27 µM for the first, 29 µM for the second.

same assay, conditions: compounds of formula (V); homogenates of rat gastocnemius muscle; 0.31 uM cyclic AMP as substrate; Dixon plot extrapolation; read-out: Apparent Ki value

Work on `CCCCn1c(=O)n(CCCCC(C)=O)c(=O)c2c1ncn2CC(C)=O` [formula (V) R^12=C4H9, 1-(5-oxohexyl)-3-n-butyl-7-(2-oxopropyl) xanthine] yielded a Ki of 3.9 µM.
